Source: patent US20100120763A1, “IMIDAZO[5,1-C][1,2,4]BENZOTRIAZINE DERIVATIVES AS INHIBITORS OF PHOSPHODIESTERASES” (priority 2008, published 2010)

Assays:
PDE10A = molecular target: T1, PDE10A (Homo sapiens, UniProt Q9Y233); experiment: Inhibition of recombinant PDE10A (baculovirus/SF21 system), [3H]-cAMP SPA; assay type: biochemical; conditions: recombinant PDE10A1, cytosolic; 0.1 μM [3H]-cAMP, 37° C., 30 minutes; read-out: PDE10A IC50
T1 construct: made in house; host or cells: SF21 insect cells (baculovirus)
Experimental: Inhibition of Recombinant PDE10A (Baculovirus/SF21 System)
The gene was than inserted into a baculovirus vector, ligated with the baculovirus DNA. The enzyme-protein was expressed in SF21-cells. The enzyme was isolated from these cells by harvesting the cells by an centrifugation at 500 g to collect the cells.
The cells were resuspended in 50 mM Tris-HCl/1 mM EDTA/250 mM Sucrose buffer, pH=7.4 (Sigma, Deisenhofen, Germany; Merck, Darmstadt, Germany) and lysed by sonification of the cells (three times for 15 seconds, Labsonic U, Fa. Braun, Degersheim, Switzerland, level “high”). The cytosolic PDE10A was obtained by a centrifugation at 48,000 g for 1 h in the supernatant and stored at −70° C.
PDE activity was determined in a one step procedure in microtiter plates. The reaction mixture of 100 μl contained 50 mM Tris-HCl/5 mM MgCl2 buffer (pH=7.4, Sigma, Deisenhofen, Germany; Merck, Darmstadt, Germany) 0.1 μM [3H]-cAMP (Amersham, Buckinghamshire, UK) and the enzyme. Non-specific enzyme activity was determined without the enzyme. The reaction was initiated by addition of the substrate solution and was carried out at 37° C. for 30 minutes. Enzymatic activity then was stopped by addition of 25 μl Ysi-SPA-beads (Amersham-Pharmacia). One hour later the mixture was measured in a liquid scintillation counter for microtiter plates (Microbeta Trilux). The Biomek 2000 (Beckman) was used routinely for pipetting of the incubation mixture. […] For determination of IC50 values the Hill-plot, 2-parameter-model, was used.

PDE2A = molecular target: T2, PDE2A (Homo sapiens, UniProt O00408); experiment: Inhibition of recombinant PDE2A (expressed in baculovirus/SF21-cells), [3H]-cAMP SPA; assay type: biochemical
T2 construct: made in house; host or cells: SF21 insect cells (baculovirus)
Experimental: Inhibition of Recombinant PDE2A (Expressed in Baculovirus/SF21-Cells)
PDE2A (NM002599) was cloned and the gene was inserted in the baculovirus and the enzyme-protein expressed in SF21-cells. The enzyme was isolated from these cells by harvesting the cells by an centrifugation at 200 g to collect the cells. The cells were resuspended in 50 mM Tris-HCl/5 mM MgCl2 buffer (pH=7.4) (Sigma, Deisenhofen, Germany; Merck, Darmstadt, Germany) and lysed by a sonication of the cells (three times for 15 seconds, Labsonic U, Fa. Braun, Degersheim, Switzerland, level “high”). The membrane fraction of PDE2A was obtained by a centrifugation at 48 000 g for 1 h, resuspended in buffer and stored at −70° C.
PDE2A activity was determined in a one step procedure in microtiterplates. The reaction mixture of 100 μl contained 50 mM Tris-HCl/5 mM MgCl2 buffer (pH=7.4) (Sigma, Deisenhofen, Germany; Merck, Darmstadt, Germany), 0.5 μM [3H]-cAMP (Amersham, Buckinghamshire, UK), 1000 nM cGMP and the enzyme. Non-specific enzyme activity was tested in the absence of cGMP. The reaction was initiated by addition of the substrate solution and was carried out at 37° C. for 30 minutes. Enzymatic activity then was stopped by addition of 25 μl SPA-beads (Amersham-Pharmacia). One hour later the mixture was measured in a liquid scintillation counter for microtiterplates (Microbeta Trilux). For pipetting of the incubation mixture the robot Biomek (Fa. Beckman) was routinely used.
For determination of IC50 values the Hill-plot, 2-parameter-model, was used.

T2 sequence (O00408 whole entry): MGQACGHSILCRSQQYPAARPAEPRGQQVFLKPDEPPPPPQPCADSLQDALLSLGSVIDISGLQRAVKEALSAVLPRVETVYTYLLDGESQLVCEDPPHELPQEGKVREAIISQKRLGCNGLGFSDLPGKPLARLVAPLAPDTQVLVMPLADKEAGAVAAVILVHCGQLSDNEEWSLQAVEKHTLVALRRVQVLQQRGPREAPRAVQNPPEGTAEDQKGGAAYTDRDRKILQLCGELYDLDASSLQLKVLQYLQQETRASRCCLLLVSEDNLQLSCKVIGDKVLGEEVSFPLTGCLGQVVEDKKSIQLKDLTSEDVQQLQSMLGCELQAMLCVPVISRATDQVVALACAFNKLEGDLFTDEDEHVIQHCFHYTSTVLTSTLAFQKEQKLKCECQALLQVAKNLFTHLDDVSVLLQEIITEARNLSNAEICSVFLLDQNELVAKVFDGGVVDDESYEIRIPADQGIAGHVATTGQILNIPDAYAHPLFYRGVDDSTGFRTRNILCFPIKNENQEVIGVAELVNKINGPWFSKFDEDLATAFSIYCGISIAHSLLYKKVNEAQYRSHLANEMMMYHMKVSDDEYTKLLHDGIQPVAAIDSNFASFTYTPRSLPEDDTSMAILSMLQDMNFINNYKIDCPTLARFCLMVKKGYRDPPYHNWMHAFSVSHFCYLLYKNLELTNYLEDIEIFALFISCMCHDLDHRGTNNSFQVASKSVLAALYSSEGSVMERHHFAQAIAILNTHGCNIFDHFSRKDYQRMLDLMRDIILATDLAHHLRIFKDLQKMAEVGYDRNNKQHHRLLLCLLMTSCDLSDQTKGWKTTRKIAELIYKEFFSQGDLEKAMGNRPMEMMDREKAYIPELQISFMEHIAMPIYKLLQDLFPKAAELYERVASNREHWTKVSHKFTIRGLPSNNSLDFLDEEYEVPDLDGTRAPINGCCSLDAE
T1 sequence (Q9Y233 1-779 isoform Q9Y233-1): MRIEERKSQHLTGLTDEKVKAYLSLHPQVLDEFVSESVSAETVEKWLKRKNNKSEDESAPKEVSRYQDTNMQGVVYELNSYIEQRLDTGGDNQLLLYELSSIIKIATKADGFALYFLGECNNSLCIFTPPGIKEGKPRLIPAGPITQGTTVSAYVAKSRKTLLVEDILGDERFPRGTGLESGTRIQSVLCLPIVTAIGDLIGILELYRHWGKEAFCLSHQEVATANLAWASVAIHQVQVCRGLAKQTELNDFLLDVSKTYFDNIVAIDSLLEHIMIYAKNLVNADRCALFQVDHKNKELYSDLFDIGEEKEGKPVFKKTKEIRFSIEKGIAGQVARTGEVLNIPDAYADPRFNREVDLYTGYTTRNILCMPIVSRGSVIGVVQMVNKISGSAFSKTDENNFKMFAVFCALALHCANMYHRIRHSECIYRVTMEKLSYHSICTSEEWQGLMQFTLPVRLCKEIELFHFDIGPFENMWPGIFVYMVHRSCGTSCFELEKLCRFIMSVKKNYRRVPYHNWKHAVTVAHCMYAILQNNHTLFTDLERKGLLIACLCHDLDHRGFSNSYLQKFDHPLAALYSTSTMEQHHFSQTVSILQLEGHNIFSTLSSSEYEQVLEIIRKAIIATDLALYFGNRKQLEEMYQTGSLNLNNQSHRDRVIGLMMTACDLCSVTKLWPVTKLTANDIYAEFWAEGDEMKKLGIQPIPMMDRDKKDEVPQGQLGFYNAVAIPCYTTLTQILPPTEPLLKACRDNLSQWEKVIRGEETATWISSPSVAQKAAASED

| Structure (SMILES) | IC50 (PDE10A) | IC50 (PDE2A) |
| --- | --- | --- |
| CCOc1ccc(Cl)c(-c2nc(C)c3nnc4c(F)cc(OC)cc4n23)c1 [Example 77, 1-(2-chloro-5-ethoxyphenyl)-6-fluoro-8-methoxy-3-methylimidazo[5,1-c][1,2,4]benzotriazine] | 30.9 nM | 10.3 nM |
| COc1ccc(Cl)c(-c2nc(C)c3nnc4c(F)cc(OC)cc4n23)c1 [Example 78, 1-(2-chloro-5-methoxyphenyl)-6-fluoro-8-methoxy-3-methylimidazo[5,1-c][1,2,4]benzotriazine] | 8.51 nM | 3.32 nM |
| COc1cc(F)c2nnc3c(C)nc(-c4sccc4C)n3c2c1 [Example 81, 6-fluoro-8-methoxy-3-methyl-1-(3-methylthiophen-2-yl)imidazo[5,1-c][1,2,4]benzotriazine] | 9.43 nM | 35.9 nM |
| COc1cc(F)c2nnc3c(C)nc(-c4cc(C(F)(F)F)ccc4Cl)n3c2c1 [Example 82, 1-[2-chloro-5-(trifluoromethyl)phenyl]-6-fluoro-8-methoxy-3-methylimidazo[5,1-c][1,2,4]benzotriazine] | 199 nM | 60.7 nM |
| COc1cc(F)c2nnc3c(C)nc(-c4cc(OC(F)(F)F)ccc4Cl)n3c2c1 [Example 83, 1-[2-chloro-5-(trifluoromethoxy)phenyl]-6-fluoro-8-methoxy-3-methylimidazo[5,1-c][1,2,4]benzotriazine] | 65.7 nM | 16.5 nM |
| COc1cc(F)c2nnc3c(C)nc(-c4c(C)nn(C)c4C)n3c2c1 [Example 85, 6-fluoro-8-methoxy-3-methyl-1-(1,3,5-trimethyl-1H-pyrazol-4-yl)imidazo[5,1-c][1,2,4]benzotriazine] | 55.2 nM | 37.3 nM |
| COc1cc(F)c2nnc3c(C)nc(-c4ccccc4OC)n3c2c1 [Example 86, 6-fluoro-8-methoxy-1-(2-methoxyphenyl)-3-methylimidazo[5,1-c][1,2,4]benzotriazine] | 8.33 nM | 3390 nM |
| COc1cc(F)c2nnc3c(C)nc(-c4ccncc4)n3c2c1 [Example 87, 6-fluoro-8-methoxy-3-methyl-1-pyridin-4-ylimidazo[5,1-c][1,2,4]benzotriazine] | 246 nM | 1250 nM |
| COc1cc(F)c2nnc3c(C)nc(-c4c(C)noc4C)n3c2c1 [Example 89, 1-(3,5-dimethylisoxazol-4-yl)-6-fluoro-8-methoxy-3-methylimidazo[5,1-c][1,2,4]benzotriazine] | 623 nM | 819 nM |
| COc1cc(F)c2nnc3c(C)nc(-c4cccnc4)n3c2c1 [Example 90, 6-fluoro-8-methoxy-3-methyl-1-pyridin-3-ylimidazo[5,1-c][1,2,4]benzotriazine] | 386 nM | 585 nM |
| COc1cncc(-c2nc(C)c3nnc4c(F)cc(OC)cc4n23)c1 [Example 95, 6-fluoro-8-methoxy-1-(5-methoxypyridin-3-yl)-3-methylimidazo[5,1-c][1,2,4]benzotriazine] | 45.5 nM | 39.4 nM |
| COc1cc(F)c2nnc3c(C)nc(-c4c(C)n[nH]c4C)n3c2c1 [Example 96, 1-(3,5-dimethyl-1H-pyrazol-4-yl)-6-fluoro-8-methoxy-3-methylimidazo[5,1-c][1,2,4]benzotriazine] | 53.1 nM | 40.3 nM |
| COc1cc(F)c2nnc3c(C)nc(-c4cc(C(N)=O)ccc4F)n3c2c1 [Example 98, 4-fluoro-3-(6-fluoro-8-methoxy-3-methylimidazo[5,1-c][1,2,4]benzotriazin-1-yl)benzamide] | 15.4 nM | 45 nM |
| COc1cccc(-c2nc(C)c3nnc4c(OC)cc(F)cc4n23)c1 [Example 99, 8-fluoro-6-methoxy-1-(3-methoxyphenyl)-3-methylimidazo[5,1-c][1,2,4]benzotriazine] | 9.11 nM | 20000 nM |
| COc1ccccc1-c1nc(C)c2nnc3c(OC)cc(F)cc3n12 [Example 100, 8-fluoro-6-methoxy-1-(2-methoxyphenyl)-3-methylimidazo[5,1-c][1,2,4]benzotriazine] | 6.53 nM | 894 nM |
| COc1cc(F)cc2c1nnc1c(C)nc(-c3cc(C(F)(F)F)ccc3Cl)n12 [Example 101, 1-[2-chloro-5-(trifluoromethyl)phenyl]-8-fluoro-6-methoxy-3-methylimidazo[5,1-c][1,2,4]benzotriazine] | 43 nM | 258 nM |
| COc1ccc(Cl)cc1-c1nc(C)c2nnc3c(OC)cc(F)cc3n12 [Example 102, 1-(5-chloro-2-methoxyphenyl)-8-fluoro-6-methoxy-3-methylimidazo[5,1-c][1,2,4]benzotriazine] | 14.5 nM | 704 nM |
| COc1cc(F)cc2c1nnc1c(C)nc(-c3cc(F)ccc3C)n12 [Example 103, 8-fluoro-1-(5-fluoro-2-methylphenyl)-6-methoxy-3-methylimidazo[5,1-c][1,2,4]benzotriazine] | 4.72 nM | 435 nM |
| COc1cc(F)cc2c1nnc1c(C)nc(-c3cc(Cl)ccc3C)n12 [Example 104, 1-(5-chloro-2-methylphenyl)-8-fluoro-6-methoxy-3-methylimidazo[5,1-c][1,2,4]benzotriazine] | 5.37 nM | 171 nM |
| COc1cc(F)cc2c1nnc1c(C)nc(-c3cc(Cl)ccc3F)n12 [Example 106, 1-(5-chloro-2-fluorophenyl)-8-fluoro-6-methoxy-3-methylimidazo[5,1-c][1,2,4]benzotriazine] | 7.91 nM | 336 nM |

More lines, now with the values ahead:

| IC50 (PDE10A) | IC50 (PDE2A) | Structure (SMILES) |
| --- | --- | --- |
| 15.2 nM | 8.39 nM | COc1cc(F)c2nnc3c(C)nc(-c4cc(Cl)ccc4C)n3c2c1 [Example 79, 1-(5-chloro-2-methylphenyl)-6-fluoro-8-methoxy-3-methylimidazo[5,1-c][1,2,4]benzotriazine] |
| 7.09 nM | 9.43 nM | COc1cc(F)c2nnc3c(C)nc(-c4cc(F)ccc4Cl)n3c2c1 [Example 80, 1-(2-chloro-5-fluorophenyl)-6-fluoro-8-methoxy-3-methylimidazo[5,1-c][1,2,4]benzotriazine] |
| 10.7 nM | 61 nM | COc1cc(F)c2nnc3c(C)nc(-c4cccc(F)c4C)n3c2c1 [Example 84, 6-fluoro-1-(3-fluoro-2-methylphenyl)-8-methoxy-3-methylimidazo[5,1-c][1,2,4]benzotriazine] |
| 7.99 nM | 14.2 nM | COc1cc(F)c2nnc3c(C)nc(-c4cc(Cl)ccc4F)n3c2c1 [Example 88, 1-(5-chloro-2-fluorophenyl)-6-fluoro-8-methoxy-3-methylimidazo[5,1-c][1,2,4]benzotriazine] |
| 43.6 nM | 56.1 nM | COc1cc(F)c2nnc3c(C)nc(-c4sc(C)nc4C)n3c2c1 [Example 91, 1-(2,4-dimethyl-1,3-thiazol-5-yl)-6-fluoro-8-methoxy-3-methylimidazo[5,1-c][1,2,4]benzotriazine] |
| 523 nM | 469 nM | COc1cc(F)c2nnc3c(C)nc(-c4cnc(F)c(C)c4)n3c2c1 [Example 92, 6-fluoro-1-(6-fluoro-5-methylpyridin-3-yl)-8-methoxy-3-methylimidazo[5,1-c][1,2,4]benzotriazine] |
| 252 nM | 312 nM | COc1cc(F)c2nnc3c(C)nc(-c4ccc(F)nc4C)n3c2c1 [Example 93, 6-fluoro-1-(6-fluoro-2-methylpyridin-3-yl)-8-methoxy-3-methylimidazo[5,1-c][1,2,4]benzotriazine] |
| 122 nM | 127 nM | COc1cc(F)c2nnc3c(C)nc(-c4cccnc4F)n3c2c1 [Example 94, 6-fluoro-1-(2-fluoropyridin-3-yl)-8-methoxy-3-methylimidazo[5,1-c][1,2,4]benzotriazine] |
| 146 nM | 146 nM | COc1cc(F)c2nnc3c(C)nc(-c4cnccc4C)n3c2c1 [Example 97, 6-fluoro-8-methoxy-3-methyl-1-(4-methylpyridin-3-yl)imidazo[5,1-c][1,2,4]benzotriazine] |
